“And” between values parts separate entries of the source, which are not always exact repeats. Identical values can stand only once.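 Values below derive from 48-hour exposures of cells grown in 96-well plates, with endpoints linearly interpolated between the two concentrations bracketing the appropriate inhibition level. GI50 marks 50% less growth. The concentration for full growth arrest is given as TGI.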
Key:
Test in all cases: NCI-60 cell line screen, 48 h
SF-539 CNS = tested on: SF-539 CNS
HCC-2998 colon = tested on: HCC-2998 colon
U251 CNS = tested on: U251 CNS
HCT-116 colon = tested on: HCT-116 colon
HT29 colon = tested on: HT29 colon
SN12C renal = tested on: SN12C renal
SF-268 CNS = tested on: SF-268 CNS
SK-OV-3 ovarian = tested on: SK-OV-3 ovarian
SK-MEL-2 melanoma = tested on: SK-MEL-2 melanoma
LOX IMVI melanoma = tested on: LOX IMVI melanoma

Row | SMILES | TGI (SF-539 CNS) | TGI (HCC-2998 colon) | TGI (U251 CNS) | TGI (HCT-116 colon) | TGI (HT29 colon) | TGI (SN12C renal) | TGI (SF-268 CNS) | TGI (SK-OV-3 ovarian) | TGI (SK-MEL-2 melanoma) | TGI (LOX IMVI melanoma) | GI50 (SF-539 CNS) | GI50 (HCC-2998 colon) | GI50 (U251 CNS) | GI50 (HCT-116 colon) | GI50 (HT29 colon) | GI50 (SN12C renal) | GI50 (SF-268 CNS) | GI50 (SK-OV-3 ovarian) | GI50 (SK-MEL-2 melanoma) | GI50 (LOX IMVI melanoma)
1 | CCCCN(CCCC)C(=O)C(=O)C(C(=O)C(=O)OC)c1nc2ccccc2o1 (stereo unspecified) | > 100 µM | > 100 µM | > 100 µM | > 100 µM | > 100 µM | > 100 µM | > 100 µM | > 100 µM | > 100 µM | > 100 µM | – | – | – | – | – | – | – | – | – | –
2 | COc1cc(/C=C(\C)c2ccc3c(c2)OCO3)cc(OC)c1OC | 58.7 µM | > 100 µM | > 100 µM | > 100 µM | > 100 µM | > 100 µM | > 100 µM | 75.1 µM | 63.6 µM | > 100 µM | – | – | – | – | – | – | – | – | – | –
3 | Cc1cc2c(=O)cc(-c3ccc(C(=O)O)cc3)oc2c(C(N)=O)c1C | > 100 µM | > 100 µM | > 100 µM | > 100 µM | > 100 µM | > 100 µM | > 100 µM | > 100 µM | > 100 µM | > 100 µM | – | – | – | – | – | – | – | – | – | –
4 | Cc1cccc2c1NC(=O)[C@@H](NC(=O)[C@H](CCC(F)(F)F)[C@H](CCC(F)(F)F)C(N)=O)N=C2c1cccc(F)c1 | 41.8 µM | > 100 µM | 59.2 µM | > 100 µM | > 100 µM | > 100 µM | 70 µM | 91.3 µM | > 100 µM | > 100 µM | 18.4 µM | 60 µM | 20.2 µM | 51.2 µM | > 100 µM | 28.4 µM | 23.2 µM | 28.7 µM | 41.5 µM | 64.8 µM
5 | COc1cc2cc(Oc3ccc(NC(=O)Nc4ccc(F)c(C(F)(F)F)c4)cc3)c(C)nc2cc1OCCN1CCOCC1 | 3.44 µM | 16.7 µM | 11.1 µM | 11.2 µM | 21.8 µM | 15.5 µM | 19.8 µM | 26.7 µM | 7.58 µM | 2.86 µM | 1.77 µM | 5.34 µM | 2.83 µM | 1.11 µM | 3.07 µM | 2.65 µM | 3.66 µM | 3.76 µM | 2.38 µM | 1.44 µM
6 | N#CC1(C#N)C2C=CC(C3CC=CC32)C1(C#N)C#N (stereo unspecified) | 17.2 µM | > 50 µM | 17.6 µM | 3.4 µM and 15.7 µM | 21.9 µM | 18.4 µM | 22.6 µM | > 50 µM | 32.1 µM | 18.6 µM | – | – | – | 7.85 µM | – | – | – | – | – | –
7 | CCC(CO)COC(=O)/C=C/C(=O)OCC(CC)CO (stereo unspecified) | > 100 µM | > 100 µM | > 100 µM | > 100 µM | > 100 µM | > 100 µM | > 100 µM | > 100 µM | > 100 µM | > 100 µM | – | – | – | – | – | – | – | – | – | –
8 | CCOC(=O)Nc1ccc2c3c(cccc13)-c1ccccc1-2 | > 100 µM | > 100 µM | > 100 µM | > 100 µM | > 100 µM | > 100 µM | > 100 µM | > 100 µM | > 100 µM | > 100 µM | 5.65 µM | 9.56 µM | 5.52 µM | 4.22 µM | 3.67 µM | 5.98 µM | 33.3 µM | 9.18 µM | > 100 µM | 4.77 µM

Source: PubChem BioAssay (NCI)
